SMILES strings stand for the structures.

The subject of assay [1] is Myc reporter (Luc)-HCT116 cells. The assay can be described thus: Myc signalling reporter dose response. Format: cell-based. Particulars: Homo sapiens, HCT-116, 24 hr. On the procedure:
The Myc reporter (Luc)-HCT116 cells were seeded as 25,000 cells in 100 μL assay medium per well in 96-well plates (Corning cat. #3903, Falcon cat. #353072). The assay medium consists of the growth medium without G-418. The next day, 4-fold dilutions of the compounds in DMSO were added to the cells at a final concentration of 1% DMSO. After 24 hr incubation, the viability of the cells was determined with PrestoBlue cell viability reagent while the luciferase reporter activity was determined with Steady-Glo luciferase reagent.
The average signal from DMSO treated wells was calculated for each plate, and the signal from each treatment well was normalized against the average DMSO signal from the respective plate. The normalized values were plotted against the concentrations tested using GraphPad Prism 5, and the EC50 values were determined through either three- or four-parameter nonlinear regression.

The target in assay [2] is T1, β-cat / GST-TCF4 N-terminal domain interaction (Homo sapiens, UniProt P35222).
T1 construct: His-tagged human β-cat (134-668); made in house; host or cells: E. coli BL21(DE3)
The assay can be described thus: SPR inhibition of β-cat-TCF4 interaction. The conditions noted are these: SPR competition, 50 nM β-cat pre-incubated 15 min, n=2; read-out: IC50 inhibition of interaction between β-cat and TCF4. Format: binding. On the procedure: BL21(DE3) cells harboring pET-28 β-cat expression vector of His-tagged human β-cat (134-668) were cultured at 37° C. until OD600=0.6-0.8. The cells were then induced with 500 μM isopropyl-β-D-thiogalactopyranoside (IPTG) for 6-8 hr at 23° C. Cells were lysed by sonication in lysis buffer containing 20 mM Tris (pH 8.8), 250 mM NaCl, 2 mM DTT, 5% glycerol, 0.1% Triton X-100, and cOmplete protease inhibitor cocktail (EDTA free, Roche cat. #11873580001). The lysate was incubated with Ni-NTA agarose beads (Qiagen cat. #30210) at 4° C. for 1 hr, and the beads were then washed with lysis buffer containing 20 mM imidazole. Bound protein was eluted with buffer containing 20 mM Tris (pH 8.8), 250 mM NaCl, 0.5 mM tris(2-carboxyethyl)phosphine (TCEP), 5% glycerol, and 250 mM imidazole.
GST-tagged TCF4 N-terminal domain was expressed similarly in BL21(DE3) cells, induced for 2-4 hr at 23° C. with IPTG, and purified from glutathione agarose beads (Pierce cat. #16100) using buffer containing 20 mM Tris (pH 8.8), 250 mM NaCl, 0.5 mM TCEP, 5% glycerol, and 10 mM reduced glutathione.
GST-tag TCF4 N-terminal domain (31 kDa, >90% pure based on SDS-PAGE) was immobilized on a CM5 series S sensor chip using amine-coupling chemistry. […]

Assay [3] addresses T2, β-cat-TCF4 interaction (Homo sapiens, UniProt P35222, DEL45-45).
T2 construct: endogenous in cells; host or cells: HCT116
The assay can be described thus: Co-immunoprecipitation of β-cat and TCF4 in HCT116 cells. Format: cell-based. The conditions noted are these: 18 hr. The procedure:
HCT116 cells were treated for 18 hr with compounds at the indicated concentrations. Cells were lysed on ice in lysis buffer containing 20 mM HEPES, pH 7.5, 137 mM NaCl, 1.5 mM MgCl2, 1 mM EGTA, 1 mM dithiothreitol (DTT), 1% Triton X-100, 10% glycerol, cOmplete protease inhibitor cocktail (Roche cat. #11697498001), and 1 mM Na3VO4. Each sample of cleared protein lysate was incubated overnight at 4° C. with 4 μg anti-β-cat antibody (Sigma cat. #C7207) followed by 1 hr incubation with a 50 μL slurry of Dynabeads Protein G (Invitrogen cat. #10004D) at 4° C. The beads were then washed three times with lysis buffer at 4° C., and the bound protein was eluted by heating the beads with 30 μL (per sample) of SDS sample buffer at 95° C. for 7 min. protein was resolved by SDS-PAGE and blotted onto PVDF membrane (Millipore cat. #IPVH00010). Primary antibodies were incubated overnight at 4° C. and the blots were detected with either IRDye 800CW goat anti-rabbit antibody (LI-COR cat. #926-32211) or IRDye 680RD goat anti-mouse antibody (LI-COR cat. #926-68070) at 1:5000 dilution. Signals were visualized with the LI-COR Odyssey CLx imaging system and bands were quantified using LI-COR Image Studio data analysis software. […]

Assay [4] has as its system CRC1707. The assay can be described thus: Viability of primary patient-derived colorectal cancer cell line. Format: cell-based.
Assay [5] relates to CRC2001. Described as above. Format: cell-based.

T2 sequence (P35222 with tags, fused parts or gaps DEL45-45): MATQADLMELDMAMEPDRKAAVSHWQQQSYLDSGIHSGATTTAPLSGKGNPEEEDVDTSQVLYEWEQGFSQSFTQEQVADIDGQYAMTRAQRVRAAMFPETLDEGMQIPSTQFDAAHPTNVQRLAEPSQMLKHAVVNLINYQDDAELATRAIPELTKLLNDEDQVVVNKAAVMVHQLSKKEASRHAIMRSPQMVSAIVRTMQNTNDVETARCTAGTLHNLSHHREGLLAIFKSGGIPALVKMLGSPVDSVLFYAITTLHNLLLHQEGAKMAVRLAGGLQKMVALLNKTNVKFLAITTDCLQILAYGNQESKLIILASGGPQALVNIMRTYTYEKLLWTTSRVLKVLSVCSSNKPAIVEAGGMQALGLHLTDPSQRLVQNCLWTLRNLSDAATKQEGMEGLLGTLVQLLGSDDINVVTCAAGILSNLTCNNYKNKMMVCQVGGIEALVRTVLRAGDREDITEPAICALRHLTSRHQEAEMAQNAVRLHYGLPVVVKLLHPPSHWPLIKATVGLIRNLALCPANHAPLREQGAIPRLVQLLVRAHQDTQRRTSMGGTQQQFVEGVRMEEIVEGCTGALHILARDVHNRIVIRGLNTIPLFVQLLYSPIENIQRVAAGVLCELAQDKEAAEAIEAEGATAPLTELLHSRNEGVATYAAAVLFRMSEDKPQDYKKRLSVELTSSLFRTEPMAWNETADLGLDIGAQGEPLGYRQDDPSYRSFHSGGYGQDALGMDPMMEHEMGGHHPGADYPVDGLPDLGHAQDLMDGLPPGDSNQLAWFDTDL
T1 sequence (P35222 134-668): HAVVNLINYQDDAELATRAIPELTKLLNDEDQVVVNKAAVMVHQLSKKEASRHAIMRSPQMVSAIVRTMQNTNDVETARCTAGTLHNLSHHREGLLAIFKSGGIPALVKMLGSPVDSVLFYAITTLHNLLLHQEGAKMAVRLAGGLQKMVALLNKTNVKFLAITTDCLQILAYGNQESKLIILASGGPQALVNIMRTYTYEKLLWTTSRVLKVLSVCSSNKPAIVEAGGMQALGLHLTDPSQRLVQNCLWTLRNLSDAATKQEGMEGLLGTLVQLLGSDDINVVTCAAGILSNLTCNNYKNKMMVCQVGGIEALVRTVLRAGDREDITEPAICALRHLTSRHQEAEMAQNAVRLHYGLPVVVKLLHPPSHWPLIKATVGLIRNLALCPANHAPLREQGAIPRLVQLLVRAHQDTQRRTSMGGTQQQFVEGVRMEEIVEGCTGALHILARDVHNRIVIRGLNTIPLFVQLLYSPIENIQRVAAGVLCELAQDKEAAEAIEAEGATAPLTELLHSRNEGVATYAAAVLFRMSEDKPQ

The IC50 is the concentration at which inhibition is half-maximal. Broadly, the EC50 is the concentration at which the effect is half-maximal. A high value points to a need for much substance. For `CCc1ccc(OCc2nnc(SC3CCCC3=O)n2C(C)c2ccccc2)cc1` (centres unmarked) [GB1874], the IC50 worked out at 32 µM in assay [1] and 25 ± 8 µM in assay [2]. In assay [3], the “β-cat-TCF4 interaction (co-IP)” value was “reduce the β-cat-TCF4 interaction to the same extent as iCRT3”. Also, the EC50 is 19 µM in assay [4] and 25 µM in assay [5].

For the origin of these results see US12661338B2, “Heterocyclic compounds as modulators of beta-catenin / TCF4 interaction” (AGENCY FOR SCIENCE, TECHNOLOGY AND RESEARCH, priority 2019, dated 2026).
